{"source": "patent US8741840B2", "about": "“BMP-7 for use in treating neointimal hyperplasia” (Washington University, priority 2008, dated 2014)", "molecules": {"B1": {"name": "Noggin: bone morphogenetic protein specific inhibitor (BMP-2 antagonist), from Pepro Tech. (protein, UniProt Q13253 28-232, looked up)", "Noggin": "QHYLHIRPAPSDNLPLVDLIEHPDPIFDPKEKDLNETLLRSLLGGHYDPGFMATSPPEDRPGGGGGAAGGAEDLAELDQLLRQRPSGAMPSEIKGLEFSEGLAQGKKQRLSKKLRRKLQMWLWSQTFCPVLYAWNDLGSRFWPRYVKVGSCFSKRSCSVPEGMVCKPSKSVHLTVLRWRCQRRGGQRCGWIPIQYPIISECKCSC"}}, "key": {"[1]": {"system": "LDLR−/− high fat fed mice", "assay": "Histology of proximal aorta (alizarin red): calcified atherosclerotic plaques", "type": "in vivo, mouse", "settings": "for size of the atherosclerotic lesions: proximal aorta (FIG. 3); for plaque associated calcium deposition: proximal aorta, alizarin red stain (FIG. 3)", "excerpt": "Tissue Preparation: Resected specimens were flash frozen in liquid nitrogen, then divided as follows: the heart, ascending aorta and aortic arch were separated from the descending aorta, and bisected sagittally through the aortic outflow tract. The descending aorta was bisected coronally, approximately halfway along its length. In order to visualize calcification in the tissue sections, Slices (5 μm thick) were cut and stained with von Kossa and Trap staining.\nAdditional mice were enrolled to the study for qualitative analysis of aortas to quantitate the effects of the treatments, because aortas of the experimental animals were destroyed by the technique of quantifying the aortic calcium content. Vascular calcification was largely aortic atherosclerotic plaque associated (FIG. 3), and punctate calcifications in the tunica media were observed. Panel A: Large lipid laden plaque (between arrows) in proximal aorta of a sham-operated high fat fed LDLR−/− mouse. Thick arrows identify focal calcifications in the base of the plaque. Panel B: A large calcified plaque (between arrows) in the proximal aorta of a CKD high fat fed LDLR−/− mouse. Panel C: A large lipid laden plaque (between arrows) in the proximal aorta of a BMP-7 treated CKD high fat fed LDLR−/− mouse. The stain is alizarin red. Magnification is 400× in A-C."}, "[2]": {"assay": "Blood tests: serum biochemical parameters in the various groups of animals", "type": "in vivo, mouse", "settings": "serum; LDLR-/-, fat diet, CKD, 28 weeks post natal; BMP-7 10 μg/kg IP weekly or binder 3% in diet", "quoted_text": "Animals were sacrificed under anesthesia 28 weeks post natal. At the time of sacrifice, blood was taken by intracardiac stab, and the heart and aorta dissected en bloc. The BMP-7 treated group received intraperitoneal injection of BMP-7 10 μg/kg dry weight once weekly in 100 μl vehicle [mannitol (5% w/v), NaAcetate buffer (20 mM, pH 4.0-4.5), sterile water].\nAnimals were allocated to one of seven CKD high fat fed groups after the second surgery: Other control Groups included LDLR−/− sham operated mice on chow diet, and LDLR−/− mice with CKD on chow diet. C57B16 WT mice fed chow served as the normal benchmark source. […] Group 1 were LDLR−/− mice on the high fat diet sacrificed at 22 weeks. Group 2 were LDLR−/− mice with CKD fed the high fat diet and treated weekly from 22 to 28 weeks with vehicle IP. […] Group 3 was the first treatment group. These were LDLR−/− mice with CKD on high fat diet that received BMP-7 treatment (10 μg/kg IP weekly). Group 4 were LDLR−/− mice with CKD on high fat diet treated with sevelamer CO3 1%. Group 5 were LDLR−/− mice with CKD on high fat diet treated with sevelamer CO3 3%. […] Once the mice were randomized into groups, they were allowed to develop calcification from weeks 14 through weeks 22 post natal. Therapy was initiated at 23 weeks postnatal and continued until week 28 postnatal at which time the mice were examined.\nBlood tests: Serum was analyzed on the day of blood draw for blood urea nitrogen [BUN], cholesterol, calcium and phosphate by standard laboratory methods. Before initiation of therapy, blood was obtained through saphenous vein. At the time of sacrifice, blood was obtained through intracardiac stab."}, "[3]": {"system": "human vascular smooth muscle cells (hVSMC) isolated from atherosclerotic donors", "assay": "Phosphorus stimulated matrix mineralization (matrix Ca content) in hVSMC cultures", "type": "cell-based", "settings": "Noggin 10-100 ng/ml added to high phosphorus media (FIG. 6A)", "description": "(§1) Cell Culture: Human adult aorta were obtained from seven cadaveric organ donors rejected because of atherosclerosis by Mid-America Transplant Services (St. Louis, Mo.) and enzymatically digested to obtain Human Smooth Muscle Cells (HSMC). Medial tissue was separated from the adventia and intima and digested with collagenase type I (Worthington, Lakewood, N.J.) 2 mg/ml for 1 hr, and washed with Hank's balanced salt solution (HBSS). Further digestion followed with collagenase type II 1 mg/ml (Worthington, Lakewood, N.J.) and elastase 0.25 mg/ml (Worthington, Lakewood, N.J.) for 4 hrs. Cell suspensions were washed twice with HBSS and cultured in T-75 flasks for three weeks in a 95%/5% air/CO2 humidified environment at 37° C. The growth medium used was DMEM containing […] glucose (high glucose), 10% fetal bovine serum (FBS, Atlas, Fort Collins, Colo.), 1 mM sodium pyruvate, 100 units/ml Penicillin and […] Streptomycin (Sigma, St Louis, Mo.). Cell purity was assessed by positive immunostaining for α-smooth muscle actin and calponin and for the absence of von Willebrand factor. In all experimental protocols, cells were seeded at 1×10^5 cells/well in six-well plates. Medium was changed on the first day and every third day thereafter. In all cases, cells used were between passages two and five (Table 3).\nInduction of Calcification: At the time of confluence, cells were switched to mineralization medium consisting of DMEM supplemented with 1 or 2 mM Pi. For cells exposed to BMP-7 treatment, fresh mineralization medium containing either vehicle (mannitol, acetic acid, acetate) or BMP-7 in vehicle was added at 0.1, 1.0, 10, or 100 ng/ml. The medium was changed every two or three days. […] Calcium content was quantified and normalized to cellular protein as described. (Jono 2000; Moe S. M. et al., Kidney Int 67:2295-2304, 2005)^11;52\nIn vitro matrix mineralization. […]"}, "hVSMC": {"system": "hVSMC", "assay": "RT-PCR of osteoblastic differentiation program genes in hVSMC", "type": "cell-based, human", "settings": "Noggin 100 ng/ml, high phosphorus media (FIG. 6B)", "description": "as §1\nRT-PCR: RNA was extracted from cell cultures using RNeasy Mini Kits (Qiagen, Valencia, Calif.). Semi-quantitative RT-PCR was conducted using Roche 1st Strand cDNA Synthesis Kit (Indianapolis, Ind.) and PCR kit from Invitrogen (Grand Island, N.Y.) according to manufacturer's instructions using a two-step method. 1 μg of total RNA was reverse transcribed and random primers were added for 60 min at 42° C., prior to PCR. Forward and Reverse primers (Table 4) were added and the reactions subjected to PCR for 20-35 cycles. The number of cycles necessary to amplify cDNA but remain within the exponential amplification range was determined for each primer set. GAPDH was used as internal standard to assess loading. Genomic contamination was assessed by heat inactivation of the reverse transcriptase prior to RT-PCR. Primers were designed using Vector NTI soft ware (Invitrogen, Grand Island, N.Y.) and optimal conditions for each prime pairs were determined (Table 4). A Perkin-Elmer DNA Thermal Cycler was used to perform the reaction. Products were separated on a 2% agarose E-gel (Invitrogen, Grand Island, N.Y.), and visualized with ethidium bromide. The band intensity was analyzed first by scanning the gel on a Typhoon 9410 gel imager (Amersham Biosciences), quantified by using TotalLab software v2003.03 (Nonlinear Dynamics, Durham, N.C.) and normalized for loading by comparison to GAPGH. Negative controls were performed by inactivating the reverse transcriptase by boiling for 5 min prior to RT-PCR to insure that genomic DNA was not amplified.\nStimulation of osteoblastic differentiation through osterix induction. […] Osterix (E) was only weakly expressed in basal culture conditions. Phosphorus stimulated transcription of osterix (E). […] The data in A-E were normalized to the expression level in basal culture conditions and expressed as fold induction, mean±SEM, n=3. In: Principles of Bone Biology, edited by Bilezikian J P et al., New York, Academic Press, 1996, pp 51-67; Hoffmann H M et al., Proc. Nat. […]"}}, "data": [{"molecule": "O=C([O-])[O-].[Ca+2]", "note": "[CaCO3]", "values": [{"measurement": "size of the atherosclerotic lesions", "setting": "[1]", "result": "did not decrease the size of the atherosclerotic lesions"}, {"measurement": "plaque associated calcium deposition", "setting": "[1]", "result": "diminished plaque associated calcium deposition"}]}, {"molecule": "O=C([O-])[O-].O=C([O-])[O-].O=C([O-])[O-].[La+3].[La+3]", "note": "[Lanthanum, LaCO3]", "values": [{"measurement": "Phosphorus", "setting": "[2]", "result": "9.7 ± .4 mg/dL"}, {"measurement": "size of the atherosclerotic lesions", "setting": "[1]", "result": "did not decrease the size of the atherosclerotic lesions"}, {"measurement": "plaque associated calcium deposition", "setting": "[1]", "result": "diminished plaque associated calcium deposition"}]}, {"molecule": "B1", "values": [{"measurement": "matrix mineralization stimulated by phosphorus", "setting": "[3]", "result": "inhibited matrix mineralization stimulated by phosphorus"}, {"measurement": "phosphorus induced osterix expression", "setting": "hVSMC", "result": "blocked phosphorus induced osterix expression"}]}]}
